This note sets out measurements from US20160194299A1 (priority 2013, published 2016).

≈ marks a conversion by molar mass, not a printed value. Read-outs that look alike come from different tables or passages of the source.

The nature of series [1]: in vitro. The conditions noted are these: African green monkey.
Series [2] has as its system Mtb. Put plainly: microbe, parasite or virus in culture. In kind it is cell-based, Mycobacterium tuberculosis. To be noted: Mycobacterium tuberculosis, read-out: MIC (III).
In series [3] the test system is Mtb. Put plainly: microbe, parasite or virus in culture. To be noted: Mycobacterium tuberculosis, read-out: MIC (I). It is filed as cell-based, Mycobacterium tuberculosis.

With `CCN1CCN(C(=O)c2ccsc2NC(=O)c2nc3ccccc3s2)CC1` [Compound 257], in series [1], the CC50 was 25 to 50 µg/mL (≈ 62.4 to 125 µM). Moreover, the values for the MIC in series [2] and in series [3] were 5 to 25 µg/mL (≈ 12.5 to 62.4 µM) and above 3 µg/mL, respectively.

The molecule `O=C(Nc1sccc1C(=O)N1CCN(c2ccccc2)CC1)c1nc2ccccc2s1` [Compound 258] had a CC50 in series [1] above 50 µg/mL. Besides, the MIC in series [2] is above 25 µg/mL; in series [3] it was above 3 µg/mL.

In the case of `O=C(Nc1sccc1C(=O)NC1CCNCC1)c1nc2ccccc2s1` [Compound 259], the CC50 in series [1] was above 50 µg/mL. Further, the MIC in series [2] is above 25 µg/mL; in series [3], above 3 µg/mL.

Take `CC1CCN(C(=O)c2ccsc2NC(=O)c2nc3ccccc3s2)CC1` [Compound 260]: the CC50 in series [1] lay in the range of 25 to 50 µg/mL (≈ 64.8 to 130 µM). Also, the MIC in series [2] is above 25 µg/mL; in series [3], above 3 µg/mL.

For the molecule `CCOC(=O)NC(=O)c1ccsc1NC(=O)c1nc2c(N3CCN(C)CC3)nccc2s1` [Compound 262], the CC50 in series [1] is 25 to 50 µg/mL (≈ 52.7 to 105 µM). Also, the MIC in series [2] was 5 to 25 µg/mL (≈ 10.5 to 52.7 µM); in series [3] it was 1 to 3 µg/mL (≈ 2.11 to 6.32 µM).

With `CCOC(=O)NC(=O)c1ccsc1NC(=O)c1cncn1C` [Compound 263], the CC50 in series [1] was above 50 µg/mL. For the same molecule, the MIC in series [2] is above 25 µg/mL; in series [3] it was above 3 µg/mL.

Turning to `CCOC(=O)NC(=O)c1ccsc1NC(=O)c1cnc2ccccc2c1` [Compound 264], the CC50 in series [1] is below 25 µg/mL. The MIC in series [2] was 5 to 25 µg/mL (≈ 13.5 to 67.7 µM); in series [3], below 1 µg/mL.

For the molecule `CCOC(=O)NC(=O)c1ccsc1NC(=O)c1cnn2ccccc12` [Compound 265], the CC50 in series [1] lay in the range of 25 to 50 µg/mL (≈ 69.8 to 140 µM). Besides, the MIC in series [2] was above 25 µg/mL; in series [3], above 3 µg/mL.

`CCOC(=O)NC(=O)c1ccsc1NC(=O)c1cnc2c(Br)cnn2c1` [Compound 266] registered a CC50 in series [1] of 25 to 50 µg/mL (≈ 57 to 114 µM). Further, the MIC was above 25 µg/mL in series [2] and below 1 µg/mL in series [3].

As for `CCOC(=O)NC(=O)c1ccsc1NC(=O)c1nc2cnc(Cl)cc2s1` [Compound 267], in series [1], the CC50 was above 50 µg/mL. The values for the MIC in series [2] and in series [3] were above 25 µg/mL and below 1 µg/mL, respectively.

As to `CCOC(=O)NC(=O)c1ccsc1NC(=O)c1nc2c(N(C)C)ccnc2s1` [Compound 268], the CC50 in series [1] is above 50 µg/mL. In addition, the values for the MIC in series [2] and in series [3] were above 25 µg/mL and below 1 µg/mL, respectively.

As for `CCOC(=O)NC(=O)c1ccsc1NC(=O)c1nc2c(N3CCN(C)CC3)ccnc2s1` [Compound 269], the CC50 in series [1] was above 50 µg/mL. The MIC in series [2] is 5 to 25 µg/mL (≈ 10.5 to 52.7 µM); in series [3] it was below 1 µg/mL.

`CCOC(=O)NC(=O)c1ccsc1NC(=O)c1nc2c(N(C)C)nccc2s1` [Compound 270] displayed a CC50 in series [1] above 50 µg/mL. For the same molecule, the MIC was above 25 µg/mL in series [2] and below 1 µg/mL in series [3].

`O=C(NC(=O)c1ccsc1NC(=O)c1nc2ccccc2s1)OCc1ccc(F)cc1` [Compound 274] registered a CC50 in series [1] below 25 µg/mL. Besides, the MIC in series [2] is above 25 µg/mL; in series [3], 1 to 3 µg/mL (≈ 2.2 to 6.59 µM).

With `O=C(NC(=O)c1ccsc1NC(=O)c1nc2cnccc2s1)OCc1ccc(F)cc1` [Compound 275], in series [1], the CC50 is 25 to 50 µg/mL (≈ 54.8 to 110 µM). Besides, the MIC was above 25 µg/mL in series [2] and above 3 µg/mL in series [3].

In series [1], `CCOC(=O)NC(=O)c1cc(CC(=O)OC)sc1NC(=O)c1nc2cnccc2s1` [Compound 276] registered a CC50 of 25 to 50 µg/mL (≈ 55.7 to 111 µM). Also, the MIC in series [2] is above 25 µg/mL; in series [3], above 3 µg/mL.

As to `CCOC(=O)NC(=O)c1cc(CC(C(=O)OCC)C(=O)OCC)sc1NC(=O)c1nc2cnccc2s1` [Compound 278], the CC50 in series [1] is above 50 µg/mL. In addition, the MIC was above 25 µg/mL in series [2] and above 3 µg/mL in series [3].

Take `CCOC(=O)NC(=O)c1cc(C(=O)OCC)sc1NC(=O)c1nc2cnccc2s1` [Compound 279]: the CC50 in series [1] lay within 25 to 50 µg/mL (≈ 55.7 to 111 µM). Moreover, the MIC was above 25 µg/mL in series [2] and above 3 µg/mL in series [3].

For `Cc1cc(COC(=O)NC(=O)c2ccsc2NC(=O)c2nc3cnccc3s2)ccn1` [Compound 280], in series [1], the CC50 is 25 to 50 µg/mL (≈ 55.1 to 110 µM). The figures for the MIC in series [2] and in series [3] were above 25 µg/mL and above 3 µg/mL, respectively.

Molecule `CC(C)COC(=O)NC(=O)c1ccsc1NC(=O)c1nc2ccccc2s1` [Compound 281] registered a CC50 in series [1] of 25 to 50 µg/mL (≈ 62 to 124 µM). In addition, the MIC in series [2] was above 25 µg/mL; in series [3], below 1 µg/mL.
